Assay: Log P by HPLC on reversed phase, method [a], acidic range (0.1% formic acid)
Format: physicochemical
Settings: LC-UV, 0.1% formic acid in water and acetonitrile

Structure (SMILES) | LogP
O=C(Nc1cnn(-c2ccc(-c3ccccc3)cc2)c1C(F)(F)F)c1cccnc1C(F)F [Example 232] | 3.59^[a]
CCC(CC)n1ncc(NC(=O)c2cc(C)cnc2C(F)F)c1C [Example 38] | 2.12^[a]
N#Cc1c(NC(=O)c2cccnc2C(F)F)cnn1-c1ccc(Cl)cc1 [Example 223] | 2.64^[a]
O=C(Nc1cnn(-c2cc(F)c(F)c(F)c2)c1Cl)c1cccnc1C(F)F [Example 253] | 2.66^[a]
CC(C)c1c(NC(=O)c2cccnc2C(F)F)cnn1-c1ccc(Cl)cc1 [Example 102] | 2.62^[a]
O=C(Nc1cnn(-c2ccccc2F)c1-c1ccc(Cl)cc1)c1cccnc1C(F)F [Example 149] | 2.73^[a]
O=C(Nc1cnn(-c2ccc(C(F)(F)F)cc2)c1Cl)c1cccnc1C(F)F [Example 188] | 2.81^[a]
CCc1c(NC(=O)c2cccnc2C(F)F)cnn1-c1cccc(C(F)(F)F)c1 [Example 117] | 2.69^[a]
O=C(Nc1cnn(-c2ccc(OC3CCCCC3)cc2)c1C(F)(F)F)c1cccnc1C(F)F [Example 254] | 4.11^[a]
Cc1ccc(-n2ncc(NC(=O)c3cc(C)cnc3C(F)F)c2C(F)(F)F)cc1 [Example 101] | 3.13^[a]
O=C(Nc1cnn(-c2ccccc2F)c1C(F)(F)F)c1ccc(Cl)nc1C(F)F [Example 158] | 3.15^[a]
O=C(Nc1cnn(-c2ccc(Cl)cc2)c1C(F)(F)F)c1cccnc1C(F)F [Example 10] | 3.02^[a]
O=C(Nc1cnn(-c2ccc(Br)cc2)c1SC(F)(F)F)c1cccnc1C(F)F [Example 228] | 3.43^[a]
O=C(Nc1cnn(-c2ccc(F)cc2)c1Cl)c1cccnc1C(F)F [Example 190] | 2.14^[a]
O=C(Nc1cnn(-c2cccc(Cl)c2)c1C(F)(F)F)c1ccc(Cl)nc1C(F)F [Example 155] | 3.62^[a]
Cc1nn(-c2ccccc2)c(Br)c1NC(=O)c1cccnc1C(F)F [Example 35] | 2.07^[a]
Cc1cnc(C(F)F)c(C(=O)Nc2cnn(-c3ccc(OC(F)(F)F)cc3)c2C)c1 [Example 241] | 2.86^[a]
Cc1cnc(C(F)F)c(C(=O)Nc2cnn(-c3ccc(Br)cc3)c2C)c1 [Example 133] | 2.59^[a]
CCCCn1ncc(NC(=O)c2cccnc2C(F)F)c1CC [Example 122] | 2.00^[a]
CCCc1ccc(-n2ncc(NC(=O)c3cccnc3C(F)F)c2C(F)(F)F)cc1 [Example 229] | 3.59^[a]
CCc1c(NC(=O)c2cccnc2C(F)F)cnn1-c1ccc(C(F)(F)F)cc1 [Example 118] | 2.76^[a]

Structure (SMILES) | LogP
Cc1cnc(C(F)F)c(C(=O)Nc2cnn(-c3ccccc3)c2C#N)c1 [Example 166] | 2.51^[a]
O=C(Nc1cnn(-c2cccc(Cl)c2)c1-c1cccc(Cl)c1)c1cccnc1C(F)F [Example 54] | 3.31^[a]
Cc1c(NC(=O)c2cccnc2C(F)F)cnn1-c1cccc(C(F)(F)F)c1 [Example 113] | 2.48^[a]
Cc1cnc(C(F)F)c(C(=O)Nc2cnn(C3CCCC3)c2C)c1 [Example 40] | 2.09^[a]
Cc1cccc(-n2ncc(NC(=O)c3ccc(Cl)nc3C(F)F)c2C(F)(F)F)c1 [Example 156] | 3.33^[a]
Cc1nn(-c2cccc(F)c2)c(C)c1NC(=O)c1cccnc1C(F)(F)F [Example 16] | 2.27^[a]
COCc1c(NC(=O)c2cccnc2C(F)F)cnn1-c1ccc(Br)cc1 [Example 251] | 2.58^[a]
COc1cnc(C(F)F)c(C(=O)Nc2cnn(-c3ccc(Cl)c(Cl)c3)c2C(F)(F)F)c1 [Example 136] | 3.76^[a]
Cc1c(NC(=O)c2cccnc2C(F)F)cnn1-c1cccc(Cl)c1 [Example 5] | 2.25^[a]
Cc1ccc(-n2ncc(NC(=O)c3ccc(Cl)nc3C(F)F)c2C(F)(F)F)cc1 [Example 157] | 3.48^[a]
COc1c(NC(=O)c2cccnc2C(F)F)c(C)nn1-c1ccccc1 [Example 76] | 1.88^[a]
Cc1ccc(-n2ncc(NC(=O)c3cccnc3C(F)F)c2C)cc1 [Example 112] | 2.10^[a]
O=C(Nc1cnn(-c2ccc(Cl)cc2)c1-c1cccc(Cl)c1)c1cccnc1C(F)F [Example 56] | 3.35^[a]
Cc1cnc(C(F)F)c(C(=O)Nc2cnn(-c3cccc(Cl)c3Cl)c2C(F)(F)F)c1 [Example 167] | 3.35^[a]
Cc1cnc(C(F)F)c(C(=O)Nc2cnn(-c3ccccc3)c2C(F)(F)F)c1 [Example 4] | 2.44^[a]
O=C(Nc1cnn(-c2cccc(Cl)c2Cl)c1C(F)(F)F)c1ccc(Br)nc1C(F)F [Example 144] | 3.80^[a]
O=C(Nc1cnn(-c2ccc(Cl)cc2)c1-c1ccc(F)cc1)c1cccnc1C(F)F [Example 187] | 3.10^[a]
O=C(Nc1cnn(-c2cccc(C(F)(F)F)c2)c1C(F)(F)F)c1cccnc1C(F)F [Example 85] | 3.19^[a]
O=C(Nc1cnn(-c2ccccc2)c1Cl)c1cccnc1C(F)F [Example 137] | 2.07^[a]
O=C(Nc1cnn(-c2cc(Cl)ccc2Cl)c1C(F)(F)F)c1ccc(Cl)nc1C(F)F [Example 176] | 3.76^[a]
Cc1ccccc1-n1ncc(NC(=O)c2cccnc2C(F)F)c1C(C)C [Example 106] | 2.37^[a]

Structure (SMILES) | LogP
O=C(Nc1cnn(-c2ccc(Br)cc2)c1C(F)F)c1cccnc1C(F)F [Example 28] | 2.80^[a]
O=C(Nc1cnn(-c2ccc(Cl)cc2)c1-c1ccc(Cl)cc1)c1cccnc1C(F)F [Example 194] | 3.35^[a]
O=C(Nc1cnn(-c2ccccc2C(F)(F)F)c1-c1ccccc1)c1cccnc1C(F)F [Example 129] | 2.70^[a]
Cc1c(NC(=O)c2cccnc2C(F)F)cnn1-c1ccccc1 [Example 12] | 1.78^[a]
Cc1cnc(C(F)F)c(C(=O)Nc2cnn(-c3cccc(Cl)c3)c2C(C)C)c1 [Example 210] | 2.84^[a]
O=C(Nc1cnn(-c2ccc(C(F)(F)F)cc2)c1C(F)(F)F)c1cccnc1C(F)F [Example 50] | 3.21^[a]
Cc1c(NC(=O)c2cccnc2C(F)F)cnn1C1CCCC1 [Example 11] | 1.83^[a]
O=C(Nc1cnn(-c2ccccc2C(F)(F)F)c1C(F)F)c1cccnc1C(F)F [Example 31] | 2.51^[a]
N#Cc1c(NC(=O)c2cccnc2C(F)F)cnn1-c1ccccc1 [Example 143] | 2.28^[a]
O=C(Nc1cnn(-c2ccc(Br)cc2)c1Cl)c1cccnc1C(F)F [Example 151] | 3.47^[a]
COCc1c(NC(=O)c2cc(C)cnc2C(F)F)cnn1-c1ccc(Br)cc1 [Example 250] | 2.80^[a]
O=C(Nc1cnn(-c2c(Cl)cccc2Cl)c1C(F)(F)F)c1ccc(Cl)nc1C(F)F [Example 160] | 3.53^[a]
O=C(Nc1cnn(-c2ccccc2F)c1C(F)(F)F)c1cccnc1C(F)F [Example 88] | 2.55^[a]
Cc1ccc(-n2ncc(NC(=O)c3cccnc3C(F)F)c2C(F)(F)F)cc1 [Example 87] | 2.86^[a]
CCCCn1ncc(NC(=O)c2cccnc2C(F)F)c1C(C)C [Example 123] | 2.18^[a]
O=C(Nc1cnn(-c2ccccc2F)c1-c1ccccc1)c1cccnc1C(F)F [Example 148] | 2.39^[a]
Cc1cnc(C(F)F)c(C(=O)Nc2cnn(-c3ccccc3F)c2C(F)(F)F)c1 [Example 140] | 2.77^[a]
O=C(Nc1cnn(-c2ccc(Br)cc2)c1-c1ccccc1)c1cccnc1C(F)F [Example 196] | 3.10^[a]
O=C(Nc1cnn(-c2cc(Cl)cc(Cl)c2)c1C(F)(F)F)c1cccnc1C(F)F [Example 92] | 3.64^[a]
O=C(Nc1cnn(-c2ccc(C(F)(F)F)cc2)c1-c1cccc(F)c1)c1cccnc1C(F)F [Example 185] | 3.31^[a]
O=C(Nc1cnn(-c2c(Cl)cccc2Cl)c1C(F)(F)F)c1cccnc1C(F)F [Example 91] | 2.94^[a]

Structure (SMILES) | LogP
O=C(Nc1cnn(-c2ccc(Cl)cc2)c1Cl)c1cccnc1C(F)F [Example 183] | 2.55^[a]
O=C(Nc1cnn(-c2ccc(Br)cc2)c1-c1ccc(Cl)cc1)c1cccnc1C(F)F [Example 200] | 3.46^[a]
CCc1c(NC(=O)c2cc(C)cnc2C(F)F)cnn1-c1ccccc1Cl [Example 212] | 2.41^[a]
COc1c(NC(=O)c2cccnc2C(F)F)cnn1-c1ccc(Br)cc1 [Example 152] | 2.40^[a]
COc1c(NC(=O)c2cccnc2C(F)F)cnn1-c1ccc(C(F)(F)F)cc1 [Example 219] | 2.63^[a]
Cc1cnc(C(F)F)c(C(=O)Nc2cnn(C(C)(C)C)c2C)c1 [Example 36] | 1.90^[a]
COc1c(NC(=O)c2cccnc2C(F)F)cnn1-c1ccccc1Cl [Example 215] | 1.85^[a]
Cc1c(NC(=O)c2cccnc2C(F)F)cnn1C(C)(C)C [Example 6] | 1.63^[a]
Cc1ccc(-n2ncc(NC(=O)c3cccnc3C(F)F)c2C(C)C)cc1 [Example 108] | 2.48^[a]
O=C(Nc1cnn(-c2ccc(Cl)cc2)c1OCC(F)F)c1cccnc1C(F)F [Example 222] | 2.60^[a]
Cc1c(NC(=O)c2cccnc2C(F)F)cnn1-c1ccccc1Cl [Example 47] | 1.94^[a]
Cc1ccc(C)c(-n2ncc(NC(=O)c3ccc(Cl)nc3C(F)F)c2C)c1 [Example 45] | 2.88^[a]
O=C(Nc1cnn(-c2ccccc2Br)c1C(F)(F)F)c1cccnc1C(F)F [Example 74] | 2.71^[a]
COc1c(NC(=O)c2cccnc2C(F)F)cnn1-c1ccccc1 [Example 98] | 1.82^[a]
COc1cnc(C(F)F)c(C(=O)Nc2cnn(-c3ccc(Cl)cc3)c2C(F)(F)F)c1 [Example 169] | 3.29^[a]
O=C(Nc1cnn(-c2ccc(Cl)cc2)c1C(F)F)c1cccnc1C(F)F [Example 23] | 2.69^[a]
Cc1cccc(-n2ncc(NC(=O)c3cccnc3C(F)F)c2C(C)C)c1 [Example 116] | 2.50^[a]
CCc1c(NC(=O)c2cccnc2C(F)F)cnn1-c1ccc(Cl)cc1 [Example 105] | 2.48^[a]
O=C(Nc1cnn(-c2ccccc2F)c1C(F)F)c1cccnc1C(F)F [Example 33] | 2.32^[a]
Cc1c(NC(=O)c2cccnc2C(F)F)cnn1-c1ccc(Cl)cc1 [Example 46] | 2.25^[a]

Source: US10039283B2, “Substituted pyrazolyl-nicotin(thio)amide derivatives and their use as fungicides” (BAYER CROPSCIENCE AKTIENGESELLSCHAFT, priority 2014, dated 2018)
